Where a name gives a salt, the structure may show the parent alone.
These compounds were tested against human SARM1(50-724) (Homo sapiens (Human), UniProt Q6SZW1) (assay: SARM1 NAD hydrolase biological assay (HPLC readout of NAD and NAM peak areas)). Conditions: 40 nM human SARM1(50-724), 0.3 mM NMN, 20 μM NAD, 60 minutes at room temperature; class symbols; read-out: Average IC50.
Format: biochemical
Procedure: The reaction was incubated at room temperature for 60 minutes and quenched with 20 μL of 0.4% formic acid. […] Total run time for each sample was 4 minutes. The run was isocratic with 1.5% methanol in 40 mM ammonium acetate pH 6.0. Samples were run at a flow rate of 0.8 ml/min at 55° C. Peak areas of NAD and NAM were determined using OpenLAB CDS (Chem Station edition) software. For dose-response, the compound was diluted serially 1:3 in DMSO and added to the reaction starting at a final compound concentration of 100 μM in 1% DMSO.

Sequence of human SARM1(50-724) (Q6SZW1 50-724): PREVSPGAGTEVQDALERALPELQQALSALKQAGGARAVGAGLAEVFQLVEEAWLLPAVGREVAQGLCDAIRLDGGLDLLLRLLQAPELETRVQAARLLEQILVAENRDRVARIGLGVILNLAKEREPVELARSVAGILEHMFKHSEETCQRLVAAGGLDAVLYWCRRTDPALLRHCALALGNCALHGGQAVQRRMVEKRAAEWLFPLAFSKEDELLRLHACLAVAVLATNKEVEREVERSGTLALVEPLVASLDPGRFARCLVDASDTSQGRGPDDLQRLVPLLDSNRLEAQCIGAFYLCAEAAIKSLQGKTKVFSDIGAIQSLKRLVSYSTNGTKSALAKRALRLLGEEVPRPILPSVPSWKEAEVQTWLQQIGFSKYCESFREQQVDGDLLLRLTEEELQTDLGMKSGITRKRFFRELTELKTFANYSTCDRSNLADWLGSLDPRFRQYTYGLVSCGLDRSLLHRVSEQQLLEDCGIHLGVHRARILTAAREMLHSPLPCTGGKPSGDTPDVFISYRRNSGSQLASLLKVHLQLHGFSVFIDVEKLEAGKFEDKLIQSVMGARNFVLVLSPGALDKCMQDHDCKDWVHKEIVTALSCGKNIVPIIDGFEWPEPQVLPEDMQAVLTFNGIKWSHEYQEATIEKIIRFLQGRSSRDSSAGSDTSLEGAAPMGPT

SMILES	IC50 [µM]
CC(c1ccncc1)c1ccc(CC(F)(F)F)[nH]1 (racemic) [Example 11, (rac)-4-(1-(5-(2,2,2-Trifluoroethyl)-1H-pyrrol-2-yl)ethyl)pyridine]	1 to 10
CN(C)[C@H](c1ncc(Cc2ccncc2)[nH]1)C(F)(F)F (single isomer, unassigned) [Example 17a]	1 to 10
OC(c1ccccn1)c1ncc(Cc2ccncc2)[nH]1 (racemic) [Example 35, (rac)-Pyridin-2-yl(5-(pyridin-4-ylmethyl)-1H-imidazol-2-yl)methanol]	1 to 10
Cc1cnccc1Cc1cnc([C@H](O)c2cncs2)[nH]1 (single isomer, unassigned) [Example 30]	10 to 100
C[C@H](c1ccncc1)c1c[nH]c([C@@H](O)C(F)(F)F)n1 (single isomer, unassigned) [Example 24a]	10 to 100
C[C@@H](c1ccncc1)c1c[nH]c(CC(F)(F)F)n1 (single isomer, unassigned) [Example 5a]	< 1
FC(F)(F)Cc1nc(Cc2ccncc2)cs1 [Example 10, 4-(Pyridin-4-ylmethyl)-2-(2,2,2-trifluoroethyl)thiazole]	1 to 10
Fc1cnccc1Cc1c[nH]c(CC(F)(F)F)n1 [Example 36, 3-Fluoro-4-((2-(2,2,2-trifluoroethyl)-1H-imidazol-4-yl)methyl)pyridine]	< 1
Cc1[nH]c(CC(F)(F)F)nc1Cc1ccncc1 [Example 14, 4-((5-Methyl-2-(2,2,2-trifluoroethyl)-1H-imidazol-4-yl)methyl)pyridine]	10 to 100
Cc1cnccc1Cc1c[nH]c(CC(F)(F)F)n1 [Example 25, 3-Methyl-4-((2-(2,2,2-trifluoroethyl)-1H-imidazol-4-yl)methyl)pyridine]	< 1
OC(c1nc(Cc2ccncc2)c[nH]1)(C(F)(F)F)C(F)(F)F [Example 39, 1,1,1,3,3,3-Hexafluoro-2-(4-(pyridin-4-ylmethyl)-1H-imidazol-2-yl)propan-2-ol]	1 to 10
CC(c1ccncc1)c1c[nH]c(CC(F)(F)F)n1 (racemic) [Example 5, (rac)-4-(1-(2-(2,2,2-Trifluoroethyl)-1H-imidazol-4-yl)ethyl)pyridine]	< 1
O[C@@H](c1ncc(Cc2ccncc2)[nH]1)C(F)(F)F (single isomer, unassigned) [Example 7]	< 1
FC(F)(F)Cc1ncc(Cc2c(Cl)cncc2Cl)[nH]1 [Example 22, 3,5-Dichloro-4-((2-(2,2,2-trifluoroethyl)-1H-imidazol-5-yl)methyl)pyridine]	10 to 100
O[C@H](c1nc(Cc2ccncc2F)c[nH]1)C(F)(F)F (single isomer, unassigned) [Example 38a]	1 to 10
OC(c1nc(Cc2ccncc2Cl)c[nH]1)C(F)(F)F (racemic) [Example 23, (rac)-1-(4-((3-Chloropyridin-4-yl)methyl)-1H-imidazol-2-yl)-2,2,2-trifluoroethan-1-ol]	< 1

SMILES	IC50 [µM]
Cc1cnccc1Cc1c[nH]c(C(O)C(F)(F)F)n1 (single isomer, unassigned) [Example 37]	1 to 10
FC(F)(F)Cc1csc(Cc2ccncc2)n1 [Example 9, 2-(Pyridin-4-ylmethyl)-4-(2,2,2-trifluoroethyl)thiazole]	1 to 10
O=C(c1ncc(Cc2ccncc2)[nH]1)C(F)(F)F [Example 12, 2,2,2-Trifluoro-1-(5-(pyridin-4-ylmethyl)-1H-imidazol-2-yl)ethan-1-one hydrochloride]	< 1
NC(c1nc(Cc2ccncc2)cs1)C(F)(F)F (single isomer, unassigned) [Example 19]	10 to 100
FC(F)(F)Cc1nc(Cc2ccncc2)n[nH]1 [Example 8, 4-((5-(2,2,2-Trifluoroethyl)-1H-1,2,4-triazol-3-yl)methyl)pyridine]	10 to 100
C[C@](O)(c1ncc(Cc2ccncc2)[nH]1)C(F)(F)F (single isomer, unassigned) [Example 32a]	1 to 10
CC(O)(c1nc(Cc2ccncc2)c[nH]1)C(F)(F)F (racemic) [Example 40, (rac)-1,1,1-Trifluoro-2-(4-(pyridin-4-ylmethyl)-1H-imidazol-2-yl)propan-2-ol]	1 to 10
O[C@](c1ncc(Cc2ccncc2)[nH]1)(c1cncs1)C(F)(F)F (single isomer, unassigned) [Example 26a]	< 1
Cc1cnccc1Cc1c[nH]c(C(O)c2cncs2)n1 (racemic) [Example 21, (rac)-(5-((3-Methylpyridin-4-yl)methyl)-1H-imidazol-2-yl)(thiazol-5-yl)methanol]	10 to 100
OC(c1nc(Cc2ccncc2)c[nH]1)c1cncs1 (single isomer, unassigned) [Example 20]	1 to 10
NC(c1nc(Cc2ccncc2)c[nH]1)C(F)(F)F (single isomer, unassigned) [Example 15]	1 to 10
Cc1cnccc1Cc1cnc([C@@H](O)c2cncs2)[nH]1 (single isomer, unassigned) [Example 30a]	1 to 10
Cc1cnccc1Cc1c[nH]c([C@@H](O)C(F)(F)F)n1 (single isomer, unassigned) [Example 37a]	< 1
CN[C@H](c1ncc(Cc2ccncc2)[nH]1)C(F)(F)F (single isomer, unassigned) [Example 16a]	1 to 10
O[C@H](c1nc(Cc2ccncc2)c[nH]1)c1cncs1 (single isomer, unassigned) [Example 20a]	< 1

Same assay, conditions: 40 nM human SARM1(50-724), 0.3 mM NMN, 20 μM NAD, 60 minutes at room temperature; given as numeric bound; read-out: Average IC50

SMILES	IC50 [µM]
C[C@@H](c1ccncc1)c1c[nH]c([C@@H](O)C(F)(F)F)n1 (single isomer, unassigned) [Example 24c]	> 50
O[C@@H](c1ncc(Cc2ccnc(F)c2)[nH]1)C(F)(F)F (single isomer, unassigned) [Example 34a]	> 100
O[C@H](c1ncc(Cc2ccncc2)[nH]1)c1nccs1 (single isomer, unassigned) [Example 31]	> 50

From US11629136B1, “Substituted pyridine derivatives as SARM1 inhibitors” (Nura Bio, Inc., priority 2021, dated 2023)
